Reference: patent US20200338056A1, “INDUCTION OF SENESCENCE USING PROTON PUMP INHIBITORS” (THE METHODIST HOSPITAL SYSTEM, priority 2016, published 2020)
“Also recorded” adds a separate entry of the source.

Columns and labels:
[1] = test system: Human microvascular endothelial cells (ECs); assay: Lysosomal pH by pHrodo Green/Red dextran fluorescence in live ECs; format: cell-based
Experimental: (§1) Cell culture. Human microvascular endothelial cells (ECs) purchased from Lonza (cat # CC-2543, Basel, Switzerland) were cultured continuously for three passages from passage (P) 4 to P6 in the presence of clinically relevant doses of esomeprazole or vehicle (DMSO) (Shin J M, Kim N. Pharmacokinetics and pharmacodynamics of the proton pump inhibitors. Journal of neurogastroenterology and motility. 2013; 19:25-35). All in vitro experiments were performed at P6 upon confluency. […]
(§2) Lysosomal studies. Cellular pH, lysosomal cathepsin B and protein aggregation were measured in live ECs using pHrodo™ Green/Red dextran, 10,000 MW dye (cat: P35368/P35372, MOLECULAR PROBES®, Life Technologies, Carlsbad, Calif.), Magic Red™ Cathepsin B Assay Kit (cat: 938, ImmunoChemistry Technologies LLC, Bloomington, Minn.) and PROTEOSTAT® Protein aggregation assay (cat: ENZ-51023-KP002, Enzo Life Sciences, Inc., Farmingdale, N.Y.). The pHrodo™ Green dextran when endocytosed permits visualization of endosomal pH, with an inverse non-linear relationship of fluorescence intensity to pH. […] Fluorescence images were taken using Olympus IX51 Inverted fluorescence microscope at 10× magnification and 40× for protein aggregation. All images were quantified using NIH ImageJ 1.47v software. […] Absorbance was measured using Tecan Infinite® M1000 PRO multimode reader at 405 nm (Tecan, Mannedorf, Switzerland).

lysosomal cathepsin B = assay: Magic Red Cathepsin B assay in live ECs; format: cell-based, human; conditions: ECs treated chronically, 5 and 10 μmol/L, P4-6, vs vehicle
Experimental: as §1, §2

acid phosphatase = assay: Acid phosphatase activity assay, EC lysate; format: cell-based, human; conditions: ECs treated chronically, 5 and 10 μmol/L, P4-6, vs vehicle
Experimental: as §1, §2

[2] = test system: N-acetyl-β-d-glucosaminidase; assay: N-Acetyl-β-D-Glucosaminidase (NAG) activity assay, EC lysate; format: cell-based, human; conditions: ECs treated chronically, vs vehicle
Experimental: as §1, §2

[3] = test system: Human microvascular endothelial cells (ECs); assay: PROTEOSTAT protein aggregation assay in ECs; format: cell-based; conditions: ECs treated chronically, vs vehicle
Experimental: as §1, §2

[4] = test system: Human microvascular endothelial cells (ECs); assay: Superoxide anion by dihydroethidium (DHE) live cell imaging; format: cell-based; conditions: ECs treated chronically, vs vehicle
Experimental: as §1
(§3) Measurement of superoxide and nitric oxide. Superoxide and nitric oxide were measured in ECs using live cell imaging dyes; DHE (Molecular Probes® cat # D-1168, Eugene, Oreg.) for superoxide and DAF-2DA (Sigma cat #50277, St. Louis, Mo.) for nitric oxide measurement according to the published protocol (Yepuri G, et al., Positive crosstalk between arginase-ii and s6k1 in vascular endothelial inflammation and aging. Aging cell. 2012; 11:1005-1016). Several images per well were captured using Olympus IX51 Inverted fluorescence microscope. Relative fluorescence intensities of images were quantified using NIH ImageJ software. The total NO concentration (NOx) was determined using the Griess colorimetric assay as previously described (Ghebremariam Y T, et al., Fxr agonist int-747 upregulates ddah expression and enhances insulin sensitivity in high-salt fed dahl rats. PloS one. 2013; 8:e60653).

[5] = test system: Human microvascular endothelial cells (ECs); assay: Nitric oxide by DAF-2DA live cell imaging; format: cell-based; conditions: ECs treated chronically, vs vehicle
Experimental: as §1, §3

[6] = test system: Human microvascular endothelial cells (ECs); assay: Total nitrate/nitrite (NOx) by Griess colorimetric assay; format: cell-based; conditions: ECs treated chronically, vs vehicle
Experimental: as §1, §3

[7] = test system: Human microvascular endothelial cells (ECs); assay: Quantitative PCR (Taqman) gene expression in ECs; format: cell-based; conditions: RT-PCR, vs vehicle
Experimental: (§4) Cell culture. Human microvascular endothelial cells (ECs) purchased from Lonza (cat # CC-2543, Basel, Switzerland) were cultured continuously for three passages from passage (P) 4 to P6 in the presence of clinically relevant doses of esomeprazole or vehicle (DMSO) (Shin J M, Kim N. Pharmacokinetics and pharmacodynamics of the proton pump inhibitors. Journal of neurogastroenterology and motility. 2013; 19:25-35). All in vitro experiments were performed at P6 upon confluency. ECs were cultured and maintained in EBM-2 Basal Medium (cat # CC-3156, Lonza, Basel, Switzerland) supplemented with EGM-2 MV SingleQuots™ Kit—growth factors, cytokines, and antibiotics (cat # CC-4147, Lonza, Basel, Switzerland).
Quantitative PCR and PCR array. Total RNA was isolated from cultured cells using PerfectPure RNA Cultured Cell Kit-50 from 5 PRIME (cat #2900319, San Francisco, Calif.) according to the manufacturer's instruction. Complementary DNA (cDNA) was prepared using gScript™ cDNA SuperMix (Quanta BioSciences, Inc. cat #95048, Beverly, Mass.). Quantitative PCR (qPCR) was performed using Taqman gene expression assays (Applied Biosystems, Foster City, Calif.). All genes analyzed for expression (listed in the table below) were normalized to GAPDH expression and expressed as relative fold changes using the ΔCt method of analysis. Gene expression of shelterin complex genes was quantified using SYBR™ Green Real Time PCR master mix. Primers for genes related to shelterin complex were obtained from Integrated DNA Technologies, Inc. (San Jose, Calif.) and are listed in the table below. RT^2 Profiler PCR Array (Qiagen, Hilden, Germany) was used to assess expression of selected genes associated with specific cellular functions following manufacturer's instructions. Name, catalog numbers and genes detected by the arrays are listed below.

[8] = test system: Human microvascular endothelial cells (ECs); assay: BrdU cell proliferation ELISA; format: cell-based; conditions: chronic exposure, 3 passages, vs vehicle
Experimental: as §4

[9] = test system: Human microvascular endothelial cells (ECs); assay: Network formation assay on growth factor reduced matrigel (angiogenic capacity); format: cell-based; conditions: growth factor-depleted matrigel, vs vehicle
Experimental: as §4
Network formation assay to measure angiogenic capacity. In order to assess angiogenic capacity of ECs, growth factor reduced matrigel from BD Biosciences (cat #354230, San Jose, Calif.) was used. In brief, 24 well flat transparent plates were coated with 200 μl of matrigel/well and allowed to set at 37° C. for one hour. Subsequently, 1×10^5 cells/well were seeded and allowed to incubate for 16 hours at 37° C. Several images per well were obtained using Olympus IX51 Inverted fluorescence and bright field microscope. Network branching was quantified using NIH ImageJ software. Total length is equal to the summed length of all segments, branches and isolated branches not within the main network. […]

[10] = test system: Human microvascular endothelial cells (ECs); assay: Senescence-associated β-galactosidase (SA-β-gal) staining with SYTO cell count; format: cell-based
Experimental: as §4
Senescence-associated β-galactosidase (SA-β-gal) staining. Senescence of ECs was measured using the Cellular Senescence Assay kit from Cell Biolabs, Inc. (Cat: CBA-230, San Diego, Calif.). The protocol was performed according to the manufacturer's guide. Briefly, Ecs treated continuously for 3 passages with esomeprazole or vehicle were plated in a 6 well plate. Upon confluency, cells were initially fixed and later incubated with SA-β-gal working solution for 16 hours in a non-humidified CO2 free incubator at 37° C. After incubation the cells were counter stained with SYTO® GREEN fluorescent nucleic acid stain (Life Technologies). Several random images per well were taken using light and fluorescent microscope. The SA-β-gal positive cells were counted manually and total cell number per field was quantified using NIH ImageJ software.

[11] = test system: Human microvascular endothelial cells (ECs); assay: RT2 Profiler PCR array, 331 genes from 5 pathways; format: cell-based; conditions: esomeprazole compared to vehicle (DMSO)
Experimental: as §4
(§5) Quantitative PCR and PCR array. Total RNA was isolated from cultured cells using PerfectPure RNA Cultured Cell Kit-50 from 5 PRIME (cat #2900319, San Francisco, Calif.) according to the manufacturer's instruction. […] Quantitative PCR (qPCR) was performed using Taqman gene expression assays (Applied Biosystems, Foster City, Calif.). All genes analyzed for expression (listed in the table below) were normalized to GAPDH expression and expressed as relative fold changes using the ΔCt method of analysis. Gene expression of shelterin complex genes was quantified using SYBR™ Green Real Time PCR master mix. […] Name, catalog numbers and genes detected by the arrays are listed below.

PAI-1 = assay: Western blot for PAI-1 protein expression; format: cell-based, human; conditions: vs vehicle
Experimental: as §4
Western blot analysis. Preparation of cell lysate, SDS-PAGE, transfer of proteins onto membrane and western blotting was performed as described previously (Rajapakse A G, et al., Hyperactive s6k1 mediates oxidative stress and endothelial dysfunction in aging: Inhibition by resveratrol. PloS one. 2011; 6:e19237.6). To detect PAI-1 protein expression anti-PAI-1 rabbit monoclonal antibody (Cell Signaling Technology, Inc. cat #11907S, Danvers, Mass.) was used and anti-α-Tubulin mouse monoclonal antibody (Sigma cat # T5168, St. Louis, Mo.) was used to normalize expression.

[12] = test system: Human microvascular endothelial cells (ECs); assay: Long term studies of endothelial histology (81 days after drug discontinued); format: cell-based; conditions: 5 or 10 μmol/L for 3 passages, then 81 days without drug, vs vehicle
Experimental: Long term studies of endothelial histology. After ECs were exposed to vehicle or ESO (5 or 10 uM) through 3 passages (P4-P6), the treatment with ESO or vehicle was discontinued when the cells reached confluency at P6. Subsequently the cells in all groups were maintained in endothelial growth medium which was routinely replaced with fresh medium every 48 hours for 81 days. Microphotographs were taken at regular intervals throughout, and on the final day of culture.

[13] = test system: Human microvascular endothelial cells (ECs); assay: Telomere length by monochrome multiplex qPCR (MMqPCR); format: cell-based; conditions: vs vehicle
Experimental: as §4
Telomere length and telomerase activity. Telomere length in ECs was measured using monochrome multiplex qPCR (MMqPCR) assay as described previously (Ramunas J, et al., Transient delivery of modified mrna encoding tert rapidly extends telomeres in human cells. FASEB journal: official publication of the Federation of American Societies for Experimental Biology. 2015; 29:1930-1939). The telomeric repeat amplification protocol (TRAP) was performed using TRAPeze® Telomerase Detection Kit (EMD Millipore Inc. cat # S7700, Darmstadt, Germany). […] In brief, ECs treated with esomeprazole or vehicle were collected, counted and total protein was isolated from 100,000 cells. […]

telomerase = assay: Telomeric repeat amplification protocol (TRAP) telomerase activity; format: cell-based, human; conditions: TRAP assay, esomeprazole and vehicle ECs
Experimental: Telomere length and telomerase activity. Telomere length in ECs was measured using monochrome multiplex qPCR ([…]) assay as described previously (Ramunas J, et al., Transient delivery of modified mrna encoding tert rapidly extends telomeres in human cells. FASEB journal: official publication of the Federation of American Societies for Experimental Biology. 2015; 29:1930-1939). The telomeric repeat amplification protocol (TRAP) was performed using TRAPeze® Telomerase Detection Kit (EMD Millipore Inc. cat # S7700, Darmstadt, Germany). Experiment was performed according to the manufacturer's instructions. In brief, ECs treated with esomeprazole or vehicle were collected, counted and total protein was isolated from 100,000 cells. The amount of lysate used per reaction was normalized to the amount of 1,000 cells for ECs and 500 cells for telomerase positive control (PC). In short, TRAP was performed at 30° C. for 30 minutes and resulting products were amplified in a 29 cycle PCR reaction. Heat inactivated (hi) lysate samples for each condition were used as internal negative controls.

shelterin complex = assay: Shelterin complex gene expression by SYBR Green RT-PCR; format: cell-based, human; conditions: vs vehicle
Experimental: as §4, §5

[14] = poor metabolizers (about 3% of whites, 23% of Asians); cited from earlier work
[15] = chronic treatment, at P6, vs vehicle

- activity of acid phosphatase (acid phosphatase): reduced
Compound: COc1ccc2nc([S@@+]([O-])Cc3ncc(C)c(OC)c3C)[nH]c2c1 [esomeprazole]
- fluorescence intensity of pH-sensitive dye (pHrodo Green), inversely related to lysosomal pH ([1]; ECs, esomeprazole 5 and 10 μmol/L, 3 passages (P4-6), vs vehicle (DMSO)): significantly reduced
- pHrodo red fluorescence (lysosomal distribution) ([1]; second pH-sensitive dye, ESO treated vs vehicle treated ECs): reduced; also recorded: qualitatively similar findings
- activity of lysosomal cathepsin-B (lysosomal cathepsin B): reduced
- N-acetyl-β-d-glucosaminidase activity [2]: does not impair; also recorded: No difference
- protein aggregates [3]: increase
- superoxide anion (dihydroethidium) [4]: more
- NO generation (diamino fluorescein 2-diacetate staining) [5]: less
- total nitrate levels (Griess) [6]: decrease
- expression of COL1A1 ([7]; EndoMT gene): upregulated
- expression of SMAD3 ([7]; EndoMT gene): upregulated
- expression of TWIST1 ([7]; EndoMT gene): upregulated
- expression of DDAH1/2 ([7]; normalized to GAPDH): decrease
- expression of eNOS ([7]; normalized to GAPDH): decrease
- expression of iNOS ([7]; normalized to GAPDH): decrease
- expression of von Willebrand factor [7]: decline
- plasminogen activator inhibitor (PAI-1) message expression [7]: upregulated
- expression of cell cycle inhibitor p21 gene ([7]; chronic treatment): increased
- cell proliferation (5-bromo-2′-deoxyuridine assay) [8]: dose-dependently impaired
- angiogenic capacity of ECs (network formation) [9]: impaired
- endothelial senescence / aging (overall finding) ([10]; chronic exposure of human ECs): accelerated
- SA-β-gal-positive cells [10, 15]: increased
- total cell count per microscopic field (SYTO-green staining) [10, 15]: decrease
- Expression of genes (PCR array) strongly up-regulated, Table 4 gene list ([11]; 52 genes listed AGTR1 to ZEB2): Expressin of genes (PCR array) that are strongly up-regulated (>2 fold) upon
- Expression of genes (PCR array) strongly up regulated, Table 5 gene list ([11]; genes listed ACE to VWF): Expression of genes (PCR array) that are strongly up regulated (>2 fold) upon
- plasminogen activator inhibitor (PAI-1) protein expression (PAI-1): upregulated
- histology at the 3-month time point (cell loss, EndoMT) [12]: acceleration of EndoMT; also recorded: some cell loss or EndoMT
- telomere length [13]: significant decrease
- telomerase expression or activity (telomerase): neither group of ECs manifested telomerase expression or activity
- expression of all 6 genes of the shelterin complex (TRF1, TRF2, POT1, RAP1, TIN2, TPP1) (shelterin complex): global downregulation
- increase in plasma concentration in CYP2C19 poor metabolizers [14]: 3 fold
